Assay results from patent US7553642B2, “Branched neutral amino acid transporters acting as single molecule” (Human Cell Systems, Inc., priority 2003, dated 2009).

Key:
Assay type in all cases: cell-based
[1] = molecular target: T1, human LAT4 (Homo sapiens, UniProt Q8N370); experiment: Leucine uptake by oocytes injected with human LAT4 cRNA; conditions: 14C-L-leucine, method of Example 3 (1)
T1 construct: expressed in transfected cells; host or cells: Xenopus laevis oocytes injected with cRNA (IMAGE clone 2783525)
T1 sequence (Q8N370 1-573 isoform Q8N370-3): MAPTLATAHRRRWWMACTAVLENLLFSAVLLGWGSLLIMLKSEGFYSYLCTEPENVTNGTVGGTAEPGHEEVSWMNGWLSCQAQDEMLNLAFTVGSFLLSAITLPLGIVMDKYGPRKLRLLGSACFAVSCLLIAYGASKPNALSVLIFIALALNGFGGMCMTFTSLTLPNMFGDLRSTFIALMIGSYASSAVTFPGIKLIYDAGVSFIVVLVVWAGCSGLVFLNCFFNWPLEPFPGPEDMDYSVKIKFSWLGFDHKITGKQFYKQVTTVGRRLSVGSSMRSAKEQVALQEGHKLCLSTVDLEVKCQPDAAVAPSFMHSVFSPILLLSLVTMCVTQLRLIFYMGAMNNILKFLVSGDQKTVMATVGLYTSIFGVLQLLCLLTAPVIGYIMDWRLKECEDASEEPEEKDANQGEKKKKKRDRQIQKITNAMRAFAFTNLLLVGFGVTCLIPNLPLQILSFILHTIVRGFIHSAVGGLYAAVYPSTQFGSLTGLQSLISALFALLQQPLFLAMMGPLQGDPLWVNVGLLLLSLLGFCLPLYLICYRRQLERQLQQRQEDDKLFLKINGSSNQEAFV
Experimental: The cDNA of human LAT4 gene obtained by Example 4 was cleaved at XhoI site, and the cRNA was prepared using T3 RNA polymerase. The cRNA of the human LAT4 gene was expressed in the oocytes and the ^14C-L-leucine uptake was measured.
The oocytes was injected with 25 ng of cRNA of the human LAT4 gene, and cultured for […]. Experiment of the leucine uptake by the oocytes injected with cRNA of the human LAT4 gene was carried out according to the method of Example 3 (1).

[2] = molecular target: T2, human LAT3 (Homo sapiens, UniProt O75387); experiment: Uptake of radiolabeled amino acids by Xenopus oocytes injected with human LAT3 cRNA
T2 construct: An expression plasmid vector pSPORT1 containing cDNA of human LAT3 was cleaved by a restriction enzyme NotI, and cRNA; expressed in transfected cells; host or cells: Xenopus laevis oocytes injected with cRNA
T2 sequence (O75387 1-559): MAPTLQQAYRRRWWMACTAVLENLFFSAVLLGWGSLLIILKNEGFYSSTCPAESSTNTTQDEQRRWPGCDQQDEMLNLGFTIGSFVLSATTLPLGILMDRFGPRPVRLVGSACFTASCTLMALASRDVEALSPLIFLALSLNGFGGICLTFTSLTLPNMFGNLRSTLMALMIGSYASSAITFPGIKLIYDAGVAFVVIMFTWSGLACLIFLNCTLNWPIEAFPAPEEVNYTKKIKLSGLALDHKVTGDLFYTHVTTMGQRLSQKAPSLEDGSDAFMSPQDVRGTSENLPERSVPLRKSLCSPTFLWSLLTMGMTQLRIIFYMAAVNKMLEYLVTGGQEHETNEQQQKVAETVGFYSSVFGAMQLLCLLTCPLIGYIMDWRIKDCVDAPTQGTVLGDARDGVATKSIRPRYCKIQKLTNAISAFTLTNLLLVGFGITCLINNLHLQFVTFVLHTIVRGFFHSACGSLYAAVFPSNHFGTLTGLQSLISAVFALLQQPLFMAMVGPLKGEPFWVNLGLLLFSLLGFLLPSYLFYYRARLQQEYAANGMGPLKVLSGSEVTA
Experimental: The substrate uptake by the injected oocytes using leucine as a substrate was carried out according to the method described by Kanai et al. (Kanai and Hediger, Nature, Vol. 360, 467-471 (1992)), as follows. The oocytes was cultured for 30 minutes in the Na^+-free uptake solution (100 mM of choline chloride, 2 mM of potassium chloride, 1.8 mM of calcium chloride, 1 mM of magnesium chloride, 5 mM of HEPES, pH 7.4) using ^14C-leucine (100 μM) as a substrate, and uptake rate of the substrate was measured by counting radioactivity in the cell.
The oocytes was injected with 25 ng of human LAT3 gene cRNA to be expressed thereby, and cultured for 3 days.
The experiment of the leucine uptake was carried out as follows according to the above described method in Example 1 (1). That is, the oocytes injected with the cRNA of the human LAT3 gene or water as a control were cultured for 10 minutes in Na^+-free uptake solution containing ^14C-leucine (100 μM) (refer to Example 1 (1)), and measured uptake of radioactivity into the cells.
The leucine uptake was conducted at the leucin concentrations of 1, 3, 10, 30, 60, 100, 200, 400, 1000, 2000 and 3000 μM using the oocytes injected with cRNA of the human LAT3 gene according to the above-described method in Example 3 (1). […] In addition, it was clarified that the leucine transport mediated by LAT3 is composed of high affinity component and low affinity component (FIG. 6, inserted figure).
An uptake experiment of various amino acids and amino acid analogs was carried out using the oocytes injected with cRNA of the human LAT3 gene according to the above-described method in Example 3 (1), provided that various radiolabeled amino acids were utilized in place of the ^14C-leucine.

[3] = molecular target: T2, human LAT3; experiment: 14C-leucine efflux from preloaded oocytes injected with human LAT3 cRNA; conditions: preloaded 100 nl of 400 μM 14C-leucine; absence of extracellular leucine; Na+-free; room temperature
Experimental: The oocytes injected with cRNA of the human LAT3 gene was injected with 100 nl of 400 μM ^14C-leucine (2 nCi). After washing the oocytes with the leucine-free and Na^+-free uptake solution which was previously cooled with ice, the oocytes were transferred to the Na^+-free uptake solution with or without leucine (1 mM) at room temperature (18 to 22° C.), then efflux of ^14C-leucine was measured. As a control, 100 nl of 400 μM ^14C-leucine (2 nCi) was injected into the oocytes injected with water instead of cRNA of the human LAT3 gene, and the extracellular efflux of ^14C-leucine was measured by the same procedures as described above.

[4] = molecular target: T3, mouse LAT3 (Mus musculus, UniProt Q8BSM7); experiment: Leucine uptake by oocytes injected with mouse LAT3 cRNA; conditions: 14C-L-leucine, method of Example 3 (1)
T3 construct: expressed in transfected cells; host or cells: Xenopus laevis oocytes injected with cRNA (IMAGE clone 4910149)
T3 sequence (Q8BSM7 whole entry): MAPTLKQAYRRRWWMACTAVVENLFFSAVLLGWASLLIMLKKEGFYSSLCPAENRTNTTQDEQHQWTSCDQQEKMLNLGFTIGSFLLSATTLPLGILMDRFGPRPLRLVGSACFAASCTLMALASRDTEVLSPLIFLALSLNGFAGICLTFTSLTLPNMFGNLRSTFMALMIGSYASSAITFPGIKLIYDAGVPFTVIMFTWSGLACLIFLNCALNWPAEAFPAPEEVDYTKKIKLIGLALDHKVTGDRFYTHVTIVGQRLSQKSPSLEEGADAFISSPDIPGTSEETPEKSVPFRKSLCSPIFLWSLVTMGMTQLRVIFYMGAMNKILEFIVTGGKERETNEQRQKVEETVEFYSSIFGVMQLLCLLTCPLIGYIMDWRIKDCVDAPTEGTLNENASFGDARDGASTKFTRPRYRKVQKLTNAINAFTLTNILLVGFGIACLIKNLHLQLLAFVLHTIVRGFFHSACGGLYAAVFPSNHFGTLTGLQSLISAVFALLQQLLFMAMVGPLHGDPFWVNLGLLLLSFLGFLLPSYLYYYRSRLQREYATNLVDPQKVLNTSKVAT
Experimental: The cDNA of mouse LAT3 obtained by Example 2 was cleaved at NotI site, and cRNA was prepared using SP6 RNA polymerase. The cRNA of the mouse LAT3 gene was expressed in the oocytes and the ^14C-L-leucine uptake was measured.
The oocytes was injected with 25 ng of cRNA of the mouse LAT3 gene to be expressed thereby, and cultured for 3 days. An experiment of the leucine uptake by the oocytes injected with cRNA of the mouse LAT3 gene was carried out according to the method in Example 3 (1).

[5] = molecular target: T4, mouse LAT4 (Mus musculus, UniProt Q8CGA3, K402E/P237S); experiment: Uptake of radiolabeled amino acids by Xenopus oocytes injected with mouse LAT4 cRNA
T4 construct: An expression plasmid vector pcDNA 3.1(+) containing cDNA of mouse LAT4 was cleaved by a restriction enzyme XbaI; expressed in transfected cells; host or cells: Xenopus laevis oocytes injected with cRNA (from pcDNA3.1(+), IMAGE clone 2235970)
T4 sequence (Q8CGA3 whole entry P237S/K402E): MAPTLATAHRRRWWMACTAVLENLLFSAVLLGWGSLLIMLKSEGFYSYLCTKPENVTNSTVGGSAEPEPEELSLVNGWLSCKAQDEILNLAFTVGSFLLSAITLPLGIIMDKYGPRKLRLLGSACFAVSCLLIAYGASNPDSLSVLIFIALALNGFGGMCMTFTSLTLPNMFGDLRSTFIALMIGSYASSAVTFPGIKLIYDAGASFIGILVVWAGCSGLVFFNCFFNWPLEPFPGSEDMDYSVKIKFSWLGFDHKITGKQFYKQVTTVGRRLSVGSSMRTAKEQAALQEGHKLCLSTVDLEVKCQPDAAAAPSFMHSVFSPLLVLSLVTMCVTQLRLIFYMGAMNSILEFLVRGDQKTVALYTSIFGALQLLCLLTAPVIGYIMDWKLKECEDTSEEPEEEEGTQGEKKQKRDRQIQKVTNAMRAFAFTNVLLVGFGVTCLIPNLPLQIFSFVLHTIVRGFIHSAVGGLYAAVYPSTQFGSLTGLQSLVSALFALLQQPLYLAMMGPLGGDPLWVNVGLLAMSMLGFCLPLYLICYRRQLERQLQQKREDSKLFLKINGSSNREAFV
Experimental: The oocytes was injected with 25 ng of cRNA of the mouse LAT4 gene to be expressed thereby, and cultured for 3 days.
An experiment of leucine uptake was carried out as follows according to the above-described method in Example 3 (1). That is, the oocytes injected with cRNA of the mouse LAT4 gene or water as a control were cultured for 10 minutes in the Na^+-free uptake solution containing […] (100 μM) (refer to Example 3 (1)), and measured the uptake of radioactivity into the cells.
The leucine uptake was conducted at the leucin concentrations of 0.01, 0.03, 0.1, 0.3, 1, 3 and 10 mM, using the oocytes injected with cRNA of the mouse LAT4 gene according to the above-described method in Example 3 (1). […] In addition, it was clarified that the leucine transport mediated by LAT4 is composed of a high affinity component and a low affinity component, just like the leucin uptake mediated by LAT3.
An uptake experiment of various amino acids and amino acid analogs was carried out using the oocytes injected with cRNA of the mouse LAT4 gene according to the above-described method in Example 3 (1). In this regard, in place of ^14C-leucine, various radiolabeled amino acids were utilized.

[6] = 14C-leucine 100 μM, Na+-free uptake solution, 10 minutes

leucine uptake in oocytes expressing human LAT4 compared with water-injected [1]: significant augmentation
uptake of radiolabeled substrate into oocytes expressing human LAT3 ([2]; 14C-labeled substrate in place of 14C-leucine, Na+-free uptake solution, 10 minutes): a large amount of uptake
leucine uptake in oocytes expressing LAT3 compared with water-injected [2, 6]: significant augmentation
concentration dependence of leucine uptake (human LAT3) ([2]; leucine 1 to 3000 μM): concentration-dependent and saturable
efflux of 14C-leucine from oocytes expressing human LAT3 [3]: significant efflux
leucine uptake in oocytes expressing mouse LAT3 compared with water-injected [4]: significant augmentation
uptake of radiolabeled substrate into oocytes expressing mouse LAT4 ([5]; 14C-labeled substrate in place of 14C-leucine): a large amount of uptake
leucine uptake in oocytes expressing mouse LAT4 compared with water-injected [5, 6]: significant augmentation
concentration dependence of leucine uptake (mouse LAT4) ([5]; leucine 0.01 to 10 mM): concentration-dependent and saturable
SMILES: CC(C)C[C@H](N)C(=O)O [L-leucine]
